What was measured:
[1] = system: acute DRA induced murine model of asthma; assay: acute DRA induced murine model of asthma; assay type: in vivo, mouse; details: 10 mg/kg intraperitoneally on day 10, 12 and 14
Excerpt: B. Experimental Design. DRA triple allergens were delivered via intranasal route as depicted.

IgE = details: cited from earlier work
Chain of IgE (P01854 1-426 limits assumed): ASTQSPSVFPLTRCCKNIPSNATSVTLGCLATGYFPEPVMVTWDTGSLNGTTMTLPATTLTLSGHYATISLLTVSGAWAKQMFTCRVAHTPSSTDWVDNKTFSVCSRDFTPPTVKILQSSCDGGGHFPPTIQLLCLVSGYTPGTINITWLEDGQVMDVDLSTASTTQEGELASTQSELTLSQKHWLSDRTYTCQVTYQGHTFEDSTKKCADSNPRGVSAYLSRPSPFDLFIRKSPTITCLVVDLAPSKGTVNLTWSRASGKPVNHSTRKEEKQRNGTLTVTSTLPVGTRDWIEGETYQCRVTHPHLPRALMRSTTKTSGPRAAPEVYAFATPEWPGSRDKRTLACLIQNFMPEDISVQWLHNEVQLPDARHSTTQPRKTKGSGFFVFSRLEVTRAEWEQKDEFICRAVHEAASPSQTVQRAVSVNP

Compound | Th2 cytokine increase in BAL fluids [1] | allergic lung inflammation (lung pathology) [1] | eosinophil recruitment to BAL fluid [1] | serum IgE rise [1] | control of asthma exacerbations (IgE; inner city children already sensitized to cockroach, Busse W W, et al. 2011) | control of seasonal exacerbations (IgE; pre-seasonal treatment, poorly controlled asthmatics, Teach S J, et al. 2015)
FC(F)(F)c1ccc(CNc2ccc(Cc3c[nH]c4ncc(Cl)cc34)cn2)cn1 [PLX3397, 5-((5-chloro-1H-pyrrolo[2,3-b]pyridin-3-yl)methyl)-N-((6-(trifluoromethyl)pyridin-3-yl)methyl)pyridin-2-amine] | attenuated | markedly reduced | blocked | attenuated |  | 
omalizumab: a humanized monoclonal anti-IgE antibody |  |  |  |  | significant benefit | effective
